The target of experiment [1] is T1, CCK-B receptors (CHO-CCK) (Homo sapiens, UniProt P32239).
T1 construct: expressed in transfected cells; host or cells: CHO (CHO-CCK model cells)
T1 sequence (P32239 1-447): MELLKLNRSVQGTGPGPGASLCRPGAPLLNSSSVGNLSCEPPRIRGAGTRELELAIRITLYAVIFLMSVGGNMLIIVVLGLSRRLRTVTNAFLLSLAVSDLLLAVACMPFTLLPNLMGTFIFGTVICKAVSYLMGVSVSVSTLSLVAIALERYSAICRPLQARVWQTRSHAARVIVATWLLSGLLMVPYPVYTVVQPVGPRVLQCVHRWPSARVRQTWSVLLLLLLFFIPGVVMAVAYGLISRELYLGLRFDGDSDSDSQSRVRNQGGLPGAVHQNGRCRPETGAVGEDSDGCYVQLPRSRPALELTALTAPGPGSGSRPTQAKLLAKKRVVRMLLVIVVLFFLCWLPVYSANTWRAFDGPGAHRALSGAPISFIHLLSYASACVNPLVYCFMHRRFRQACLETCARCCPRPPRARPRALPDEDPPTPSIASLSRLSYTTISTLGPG
Briefly: Calcium flux (Fluo-8) agonist test on CHO-CCK model cells. It is filed as cell-based. The following applies: for EC50: CHO-CCK cells. In short, it runs like this: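 Agonist-mode Fluo-8 calcium flux read on CHO-CCK cells after dye loading 30 min at 37 °C plus 30 min at room temperature.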
(A change in cytosolic calcium serves as a functional read-out for many receptors and channels.)

Experiment [2] concerns the target T1, CCK-B receptors (CHO-CCK). Briefly: Calcium flux (Fluo-8) antagonist test on CHO-CCK model cells in presence of CCK8. It is filed as cell-based. Here is the method:
The compound was formulated to a 10 mM mother liquor with DMSO, and then diluted into a series of 9 concentrations with a 3-fold gradient to form a 1000× stock solution. […] Prepare 1×Fluo-8 analysis buffer: mix 9 mL of HHBS, 1 mL of 10× Pluronic F127 Plus and 20 μL of Fluo-8 thoroughly for later use. • 3. Add Fluo-8 dye working solution to the cell plate, 100 μL/well. First incubate in a 37° C. incubator for 30 min, and then take it out and incubate at room temperature in the dark for 30 min. • 4. In the process of incubating cells, the compounds to be detected were prepared with HHBS. • 5. […] The agonism/antagonism EC50 of the compound can be obtained by plotting the fitting curve with the agonism/antagonism percentage as Y-axis and the concentration of the compound as X-axis.

[3] abbreviates: Fluo-8 calcium flux, 100% control = 20 nM CCK8.
Setting [4] is: in presence of 10 nM CCK8, bound in μM.
[5] abbreviates: compound alone, 100% = 20 nM CCK8.
The mark [6] stands for this setting: compound together with 10 nM CCK8.

Where a SMILES comes first, the peptide text is derived from it. [ ]: non-standard residue; d: D form. The star is where a group is joined. Trp(5-OH) = N[C@@H](Cc1c[nH]c2ccc(O)cc12)C(=O)O; Phe(3-Br) = N[C@@H](Cc1cccc(Br)c1)C(=O)O; dNMeW = CN[C@H](Cc1c[nH]c2ccccc12)C(=O)O; Fmoc = O=C(OCC1c2ccccc2-c2ccccc21)*; Gly(octyl) = CCCCCCCC[C@H](N)C(=O)O; Nle = CCCC[C@H](N)C(=O)O Where only a bound is given, the exact number is not on record here.

Usually EC50 stands for the concentration needed to bring the measured effect to its halfway point. As to `CCCC[C@H](NC(=O)[C@@H](Cc1c[nH]c2ccccc12)NC(C)=O)C(=O)N[C@@H](CC(=O)O)C(=O)N[C@@H](Cc1c[nH]c2ccc(O)cc12)C(N)=O` [HT-226, Ac-D-Trp-Nle-Asp-(5-HTP)-NH2] (Ac-[dW][Nle]D[Trp(5-OH)]-NH2), the results for the concentration for a half-maximal effect (EC50) in experiment [1] (setting [3]) and in experiment [2] (setting [4]) were 14.2 µM and above 10 µM, respectively.

As to `CSCC[C@H](NC(=O)[C@H](Cc1c[nH]c2ccccc12)NC(C)=O)C(=O)N[C@@H](CC(=O)O)C(=O)N[C@@H](Cc1c[nH]cn1)C(N)=O` [HT-191, Ac-Trp-Met-Asp-His-NH2] (Ac-WMDH-NH2), the 50% effective concentration (EC50) was above 10 µM in experiment [1] (compound alone, bound in μM) and above 10 µM in experiment [2] (compound together with 10 nM CCK8, bound in μM).

As for `CCCC[C@H](NC(=O)[C@H](Cc1c[nH]c2ccccc12)NC(=O)OCC1c2ccccc2-c2ccccc21)C(=O)N[C@@H](CC(=O)O)C(=O)N[C@@H](Cc1cccc(Br)c1)C(N)=O` [HT-198, Fmoc-Trp-Nle-Asp-Phe(3-Br)-NH2] (Fmoc-W[Nle]D[Phe(3-Br)]-NH2), the concentration giving a half-maximal response (EC50) in experiment [1] (setting [3]) is 0.205 µM; in experiment [2] (in presence of 10 nM CCK8), 0.908 µM.

As to `CCCC[C@H](NC(=O)[C@H](Cc1c[nH]c2ccccc12)NC(=O)CNC(C)=O)C(=O)N[C@@H](CC(=O)O)C(=O)N[C@@H](Cc1cccc(Br)c1)C(N)=O` [HT-215, Ac-Gly-Trp-Nle-Asp-Phe(3-Br)-NH2] (Ac-GW[Nle]D[Phe(3-Br)]-NH2), the concentration giving a half-maximal response (EC50) is below 0.0001 µM in experiment [1] (Fluo-8 calcium flux, bound printed in nm in the cell) and 0.237 µM in experiment [2] (in presence of 10 nM CCK8).

Regarding `CCCC[C@H](NC(=O)[C@@H](Cc1c[nH]c2ccccc12)N(C)C(=O)OCC1c2ccccc2-c2ccccc21)C(=O)N[C@@H](CC(=O)O)C(=O)N[C@@H](Cc1cccc(Br)c1)C(N)=O` [HT-249, Fmoc-(N-Me-D-Trp)-Nle-Asp-Phe(3-Br)-NH2] (Fmoc-[dNMeW][Nle]D[Phe(3-Br)]-NH2), the figures for the EC50 in experiment [1] (setting [3]) and in experiment [2] (in presence of 10 nM CCK8) were 0.00226 µM and 4.55 µM, respectively.

Turning to `CCCCCCC[C@@H](NC(C)=O)C(=O)N[C@@H](CCCC)C(=O)N[C@@H](CCC(=O)O)C(=O)N[C@@H](Cc1cccc(Br)c1)C(N)=O` [HT-264, Ac-Na-Nle-Glu-Phe(3-Br)-NH2], the EC50 in experiment [1] (setting [3]) was 11 µM; in experiment [2] (setting [4]), above 10 µM.

Regarding `CCCCCCCC[C@H](NC(=O)[C@H](Cc1c[nH]c2ccccc12)NC(C)=O)C(=O)N[C@@H](CC(=O)O)C(=O)N[C@@H](Cc1cccc(Br)c1)C(N)=O` [HT-261, Ac-D-Trp-Da-Asp-Phe(3-Br)-NH2] (Ac-W[Gly(octyl)]D[Phe(3-Br)]-NH2), the values for the EC50 in experiment [1] (setting [3]) and in experiment [2] (in presence of 10 nM CCK8) were 0.362 µM and 3.82 µM, respectively.

Take `CCCC[C@H](NC(=O)[C@@H](Cc1c(C)[nH]c2ccccc12)NC(C)=O)C(=O)N[C@@H](CC(=O)O)C(=O)N[C@@H](Cc1cccc(Br)c1)C(N)=O` [HT-231, Ac-(2-Me-Trp)-Nle-Asp-Phe(3-Br)-NH2]: the EC50 came out at 0.252 µM in experiment [1] (setting [3]) and 1.43 µM in experiment [2] (in presence of 10 nM CCK8).

Turning to `CSCC[C@H](NC(=O)[C@@H](Cc1c[nH]c2ccccc12)NC(C)=O)C(=O)N[C@@H](CC(C)C)C(=O)N[C@@H](Cc1cccc(Br)c1)C(N)=O` [HT-190, Ac-D-Trp-Met-Leu-Phe(3-Br)-NH2] (Ac-[dW]ML[Phe(3-Br)]-NH2), the EC50 stood at 4.75 µM in experiment [1] (setting [5]) and 6.16 µM in experiment [2] (setting [6]).

Turning to `CCCC[C@H](NC(=O)[C@@H](Cc1c(C)[nH]c2ccccc12)NC(C)=O)C(=O)N[C@@H](CCC(=O)O)C(=O)N[C@@H](Cc1c(C)[nH]c2ccccc12)C(N)=O` [HT-248, Ac-(2-Me-Trp)-Nle-Glu-(2-Me-Trp)-NH2], the concentration for a half-maximal effect (EC50) in experiment [1] (setting [3]) was determined as 0.0331 µM; in experiment [2] (in presence of 10 nM CCK8) it was 0.47 µM.

As to `CCCC[C@H](NC(=O)[C@@H](Cc1cn(C)c2ccccc12)NC(C)=O)C(=O)N[C@@H](CCC(=O)O)C(=O)N[C@@H](Cc1cccc(Br)c1)C(N)=O` [HT-243, Ac-(1-Me-Trp)-Nle-Glu-Phe(3-Br)-NH2], the half-maximal effective concentration (EC50) in experiment [1] (setting [3]) amounted to 0.44 µM; in experiment [2] (in presence of 10 nM CCK8) it was 1.41 µM.

On to `CS(=O)(=O)CC[C@H](NC(=O)[C@H](N)Cc1c[nH]c2ccccc12)C(=O)N[C@@H](CC(=O)O)C(=O)N[C@@H](Cc1cc(Cl)cc(Cl)c1)C(N)=O` [HT-72, D-Trp-Met(O2)-Asp-Phe(3,5-DiCl)-NH2], for which the EC50 in experiment [1] (setting [5]) was found to be 1.51 µM; in experiment [2] (setting [6]), 2.62 µM. In addition, in experiment [1] (compound at 10 μM, percentage of signal of 20 nM CCK8 alone), the “Agonistic Activity (%) at 10 μM” value is listed as 82.71%.

Source of the values: patent US20240415918A1, “Polypeptide and its use as a CCK receptor agonist/antagonist” (Centre for Regenerative Medicine & Health, Hong Kong …, priority 2021, published 2024).
